Like-named read-outs stand apart in the source and are kept apart here.

Experimental findings from PMC8704611, “Synthesis, Molecular Docking Analysis, and Biological Evaluations of Saccharide-Modified Sulfonamides as Carbonic Anhydrase IX Inhibitors” (International Journal of Molecular Sciences, 2021) are described below.

Test [1] has as its system HT-29 cells. As to the kind of experiment: Measurement of extracellular pH. It is filed as cell-based. Particulars: for effect on extracellular pH: HT-29, 0.1 mM and 1.0 mM; for Extracellular pH, Hypoxic condition: hypoxia, control 6.81; for Extracellular pH, Normoxic condition: normoxia, control 7.02. The protocol:
The main role of CA IX and XII in tumour development is to regulate the pH of the tumour growth microenvironment so that tumour cells are in a weakly acidic environment. Such an acidic environment is conducive to the growth of tumour cells and protects tumour cells from being killed by chemotherapeutics. We evaluated the effects of 0.1 mM and 1.0 mM of compounds 16a and 16b on the pH of the tumour cell growth environment under normoxia or hypoxia (detailed data is provided in the Tables S5 and S6 of supplementary information).
(§1) The changes in extracellular pH were evaluated according to previously published procedures. Cancer cells were grown in the medium containing 10% FBS and incubated in 6-well plates for 12 h. After removing the medium, we added fresh medium to the 6-well plates and incubated them for 48 h under hypoxia or normoxia. Then, we measured the pH of the culture medium immediately after collection. The tested compounds were dissolved in DMSO and diluted to the desired concentration. After the addition of tested compounds, the same procedure was carried out.

The test system of test [2] is MDA-MB-231 cells. The experiment in a line: CCK-8 cell viability assay. The conditions noted are these: Homo sapiens, MDA-MB-231, 400 μM, 48 h. It is filed as cell-based. The protocol:
(§2) The CCK-8 assay was used to evaluate the cytotoxicity of compounds 16a, 16b, and 16e on the breast cancer cell line MDA-MB-231 and colon cancer cell line HT-29. MDA-MB-231 and HT-29 are tumour cells that have been reported to express CA IX. We cultivated them under normoxia and hypoxia respectively and then evaluated the effects of the compounds on tumour cell viability at different concentrations.
(§3) Cell viability was tested by CCK-8 assay. The MDA-MB-231, HT-29 and MG-63 cell lines were provided by KeyGEN BioTECH Ltd. (Nanjing, Jiangsu, China). The cancer cell suspension was prepared to 5.0 × 10^4 cells/mL. After adding 100 μL cell suspension into each well of 96-well plates, the 96-well plates were placed in the incubator at 37 °C and 5% CO2 for 24 h. The compounds were diluted to the required concentration with the medium, and 100 μL of the corresponding medium was added to each well. Meanwhile, the negative control group was set up. The plates were incubated in normoxia or hypoxia for 48 h. The CCK-8 solution (10 μL) was added to each well, and the cells were incubated for another 3 h. After removing the bubbles in each well, cell viability was assessed by measuring the absorbance at 450 nm wavelength using a microplate reader. The hypoxia atmosphere consisted of 0.5% O2, 5% CO2, and 94.5% N2. The normoxia atmosphere was air.

Test [3] relates to HT-29 cells. The experiment in a line: CCK-8 cell viability assay. It is filed as cell-based. Particulars: for decrease in cell viability: HT-29, highest concentration of 400 μM; for viability at 400 µM: Homo sapiens, HT-29, 400 μM, 48 h. The protocol: as §2, §3
(In general: Tetrazolium assays rely on reduction of a dye to a coloured formazan, in cell work by metabolically active cells.)

Test [4] deals with MDA-MB-231 cells. The experiment in a line: Measurement of extracellular pH. The class given is cell-based. The conditions noted are these: for effect on extracellular pH: MDA-MB-231, 0.1 mM and 1.0 mM; for Extracellular pH, Hypoxic condition: hypoxia, control 6.84; for Extracellular pH, Normoxic condition: normoxia, control 7.06. The protocol:
The main role of CA IX and XII in tumour development is to regulate the pH of the tumour growth microenvironment so that tumour cells are in a weakly acidic environment. Such an acidic environment is conducive to the growth of tumour cells and protects tumour cells from being killed by chemotherapeutics.
as §1

Another test deals with hCA II (Homo sapiens, UniProt P00918). As to the kind of experiment: CA inhibition assay (hydrolysis of 4-nitrophenylacetate). The conditions noted are these: 4-NPA hydrolysis; three independent assays, relative errors 5–10%. The class given is biochemical. From the text:
(§4) Carbonic anhydrase has the ability to catalyse the hydrolysis of 4-NPA. […] More detailed operations and specific parameters are as reported earlier.

The target of another test is hCA XII (Homo sapiens, UniProt O43570). The test is described as above. The class given is biochemical. Particulars: 4-NPA hydrolysis; three independent assays, relative errors 5–10%.
hCA XII, sequence (O43570 25-354): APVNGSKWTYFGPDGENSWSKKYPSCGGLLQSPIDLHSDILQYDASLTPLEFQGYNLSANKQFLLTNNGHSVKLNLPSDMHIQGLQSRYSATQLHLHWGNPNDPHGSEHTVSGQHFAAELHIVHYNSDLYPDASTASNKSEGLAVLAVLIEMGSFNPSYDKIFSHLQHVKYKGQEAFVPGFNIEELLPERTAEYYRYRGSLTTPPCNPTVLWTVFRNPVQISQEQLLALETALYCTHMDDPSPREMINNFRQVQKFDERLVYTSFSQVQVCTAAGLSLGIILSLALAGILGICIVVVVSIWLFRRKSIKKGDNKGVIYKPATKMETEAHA
Description: as §4

For the next test, the target named is hCA IX (Homo sapiens, UniProt Q16790). The description is as above. The conditions noted are these: 4-NPA hydrolysis; three independent assays, relative errors 5–10%. It is filed as biochemical.
Description: as §4

The subject of a further test is MG-63 cells. As to the kind of experiment: CCK-8 cell viability assay. It is filed as cell-based, human. Particulars: for viability at 800 µM: Homo sapiens, MG-63, 800 μM, 48 h. The protocol: The human osteosarcoma cell line MG-63 is a high-expressing cell line of CA IX and XII [24]. We selected compound 16b with the best activity in the above studies to study the cell viability inhibitory activity of MG-63 (detailed data is provided in the Table S4 of supplementary information).
as §3

Test [5] concerns MDA-MB-231 cells. As to the kind of experiment: Cell migration (scratch wound) assay. The class given is cell-based. Particulars: MDA-MB-231, 400 μM, hypoxia. The protocol:
Tumour cell migration is one of the basic biological characteristics of tumour cells. […] MDA-MB-231 was selected as the experimental cell line to explore the ability of 16a to reduce tumour cells migration under hypoxia.
MDA-MB-231 cells (1 × 10^5 cells/well) were cultured in 6-well plates and wounded by scratching with a pipette tip. The wounded cell monolayers were washed three times with PBS and incubated with serum-free medium.

Setting [6] is: hypoxia, read-out: cell viability, Hypoxic condition (%).
Where [7] appears, read: normoxia, read-out: cell viability, Normoxic condition (%).

In the case of `NS(=O)(=O)c1ccc(-n2cc(-c3cccc(NC(=O)CCC(=O)N[C@@H]4O[C@H](CO)[C@@H](O)[C@H](O)[C@H]4O)c3)nn2)cc1` [Compound 16b, N^1-(3-(1-(4-sulfamoylphenyl)-1H-1,2,3-triazol-4-yl)phenyl)-N^4-((2R,3R,4S,5S,6R)-3,4,5-trihydroxy-6-(hydroxymethyl)tetrahydro-2H-pyran-2-yl)succinamide], the “effect on extracellular pH” value in the test on HT-29 cells [1] and in the test with MDA-MB-231 cells [4] was “improve the extracellular pH” each time. Besides, the “Extracellular pH, Hypoxic condition” value is listed as 6.82 with HT-29 cells [1] (HT-29, 0.1 mM); 7.27 in the test with HT-29 cells [1] (HT-29, 1.0 mM); 6.88 in the test on MDA-MB-231 cells [4] (MDA-MB-231, 0.1 mM); 7.20 in the test on MDA-MB-231 cells [4] (MDA-MB-231, 1.0 mM). Further, the “Extracellular pH, Normoxic condition” value with HT-29 cells [1] (HT-29, 0.1 mM) was found to be 6.96; in the test on HT-29 cells [1] (HT-29, 1.0 mM), 7.15; in the test on MDA-MB-231 cells [4] (MDA-MB-231, 0.1 mM), 7.02; with MDA-MB-231 cells [4] (MDA-MB-231, 1.0 mM), 7.20. The viability (in general, a per cent measure of how many cells are alive, often set against a control) at 400 µM with MDA-MB-231 cells [2] (setting [6]) came to 86.5 ± 1.92%; in the test on MDA-MB-231 cells [2] (setting [7]) it was 90.5 ± 0.965%; in the test with HT-29 cells [3] (setting [6]), 81.1 ± 2.43%; in the test on HT-29 cells [3] (setting [7]), 89.67 ± 0.554%. Further, the “decrease in cell viability” value with HT-29 cells [3] came to 20%. Moreover, the IC50 (usually the concentration that gives 50% inhibition) was determined as 13.3 nM against hCA II, 256 nM against hCA XII and 86.6 nM at hCA IX. In addition, the viability at 800 µM came out at 76.6 ± 3.51% with MG-63 cells (setting [6]) and 81.6 ± 3.34% in the test with MG-63 cells (setting [7]). Further, the “inhibition of MG-63 cell viability” value with MG-63 cells (MG-63, normoxia and hypoxia) is “concentration-dependent”.
`NS(=O)(=O)c1ccc(-n2cc(-c3ccc(NC(=O)CCC(=O)N[C@@H]4O[C@H](CO)[C@@H](O)[C@H](O)[C@H]4O)cc3)nn2)cc1` [Compound 16a, N^1-(4-(1-(4-sulfamoylphenyl)-1H-1,2,3-triazol-4-yl)phenyl)-N^4-((2R,3R,4S,5S,6R)-3,4,5-trihydroxy-6-(hydroxymethyl)tetrahydro-2H-pyran-2-yl)succinamide]: the “effect on extracellular pH” value in the test on HT-29 cells [1] and in the test with MDA-MB-231 cells [4] was “improve the extracellular pH” each time. Also, the “Extracellular pH, Hypoxic condition” value in the test with HT-29 cells [1] (HT-29, 0.1 mM) is 6.88; with HT-29 cells [1] (HT-29, 1.0 mM), 7.26; in the test on MDA-MB-231 cells [4] (MDA-MB-231, 0.1 mM), 6.9; in the test with MDA-MB-231 cells [4] (MDA-MB-231, 1.0 mM), 7.31. Further, the “Extracellular pH, Normoxic condition” value is given as 6.97 in the test on HT-29 cells [1] (HT-29, 0.1 mM); 7.13 with HT-29 cells [1] (HT-29, 1.0 mM); 7.04 in the test with MDA-MB-231 cells [4] (MDA-MB-231, 0.1 mM); 7.21 with MDA-MB-231 cells [4] (MDA-MB-231, 1.0 mM). In addition, the viability at 400 µM with MDA-MB-231 cells [2] (setting [6]) is 85.1 ± 1.68%; in the test with MDA-MB-231 cells [2] (setting [7]), 88.9 ± 1.71%; with HT-29 cells [3] (setting [6]) it was 82.6 ± 1.92%; in the test on HT-29 cells [3] (setting [7]), 83.3 ± 2.09%. The “decrease in cell viability” value with HT-29 cells [3] came out at 20%. In addition, the “effect on tumour cell migration” value in the test on MDA-MB-231 cells [5] (at 72 h) is reported as “could hardly be detected”; in the test with MDA-MB-231 cells [5] (first 24 h, vs blank group), “slight inhibitory effect”. In addition, the results for the IC50 against hCA II, at hCA XII and on hCA IX were 27.7 nM, 135 nM and 51.6 nM, respectively.
With `CC(=O)Nc1nnc(S(N)(=O)=O)s1` [AZM, acetazolamide, reference compound], the “Extracellular pH, Hypoxic condition” value with HT-29 cells [1] (HT-29, 0.1 mM) was 6.90; in the test with HT-29 cells [1] (HT-29, 1.0 mM) it was 7.28; in the test with MDA-MB-231 cells [4] (MDA-MB-231, 0.1 mM) it was 6.97. For the same compound, the “Extracellular pH, Normoxic condition” value in the test on HT-29 cells [1] (HT-29, 0.1 mM) worked out at 6.97; in the test with HT-29 cells [1] (HT-29, 1.0 mM) it was 7.26; with MDA-MB-231 cells [4] (MDA-MB-231, 0.1 mM), 7.05; with MDA-MB-231 cells [4] (MDA-MB-231, 1.0 mM), 7.23. Also, the viability at 400 µM in the test on MDA-MB-231 cells [2] (setting [6]) came to 85.2 ± 1.96%; in the test on MDA-MB-231 cells [2] (setting [7]), 96.2 ± 2.28%; in the test with HT-29 cells [3] (setting [6]), 89.53 ± 0.161%; with HT-29 cells [3] (setting [7]) it was 91.7 ± 2.59%. The viability at 800 µM in the test on MG-63 cells (setting [6]) was 81.7 ± 1.17%; with MG-63 cells (setting [7]) it was 87.1 ± 1.94%.
For the compound `COc1cc(-c2cn(-c3ccc(S(N)(=O)=O)cc3)nn2)ccc1NC(=O)CCCC(=O)N[C@@H]1O[C@H](CO)[C@@H](O)[C@H](O)[C@H]1O` [Compound 16m, N^1-(2-methoxy-4-(1-(4-sulfamoylphenyl)-1H-1,2,3-triazol-4-yl)phenyl)-N^5-((2R,3R,4S,5S,6R)-3,4,5-trihydroxy-6-(hydroxymethyl)tetrahydro-2H-pyran-2-yl)glutaramide], the IC50 worked out at 88.1 nM on hCA II, 146 nM at hCA XII and 99.6 nM against hCA IX.
Take `Cc1cc(-c2cn(-c3ccc(S(N)(=O)=O)cc3)nn2)ccc1NC(=O)CCC(=O)N[C@@H]1O[C@H](CO)[C@@H](O)[C@H](O)[C@H]1O` [Compound 16e, N^1-(2-methyl-4-(1-(4-sulfamoylphenyl)-1H-1,2,3-triazol-4-yl)phenyl)-N^4-((2R,3R,4S,5S,6R)-3,4,5-trihydroxy-6-(hydroxymethyl)tetrahydro-2H-pyran-2-yl)succinamide]: the viability at 400 µM was found to be 90.6 ± 2.76% with MDA-MB-231 cells [2] (setting [6]), 87.2 ± 2.28% in the test with MDA-MB-231 cells [2] (setting [7]), 87.7 ± 1.79% in the test with HT-29 cells [3] (setting [6]) and 91.5 ± 2.64% in the test with HT-29 cells [3] (setting [7]). Further, the figures for the IC50 against hCA II, against hCA XII and on hCA IX were 41.6 nM, 162 nM and 84.7 nM, respectively.
